Measurements reported in PubChem BioAssay AID1963965 (Molecular Pharmacology Branch, DTP, NCI, 2024).

Test system: 996289-038-R-J1-PDC spheroid viability
Test: Anticancer human tumor 996289-038-R-J1-PDC patient-derived colon adenocarcinoma cell line growth inhibition [PI3K]
Conditions: spheroids with HUVEC and MSC; for IC50: curve of first compound; for viability, T/C: stronger effect = lower value
Outline: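 High-throughput combination screen: PI3K inhibitors crossed with targeted small molecules on complex spheroids of tumor cells, HUVEC and MSCs at 37 degrees C, 5% CO2. Top concentration was at or near clinical Cmax (otherwise 10 microM), with half-log decrements.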
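Further: spheroids exposed to compounds for seven days before viability read.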
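Wherever viability, T/C is given: luminescence used as a proxy for viable cell amount; percent viability relative to DMSO vehicle control as 100%.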

C#Cc1c(F)ccc2cc(O)cc(-c3ncc4c(N5CC6CCC(C5)N6)nc(OCC56CCCN5CC(F)C6)nc4c3F)c12 (configuration not stated) + CC(Nc1ncnc2nc[nH]c12)c1cc2cccc(Cl)c2c(=O)n1-c1ccccc1
IC50 (second compound 0.0316 µM): 1160 nM | IC50 (second compound 0.1 µM): 1510 nM | IC50 (second compound 0.316 µM): 1430 nM | IC50 (second compound 1 µM): 1040 nM | IC50 (second compound 3.16 µM): 681 nM | IC50 (second compound 10 µM): 372 nM | viability, T/C (second compound 0.0316 µM, first compound 0.0316 µM): 101% | viability, T/C (second compound 0.0316 µM, first compound 0.1 µM): 96.6% | viability, T/C (second compound 0.0316 µM, first compound 0.316 µM): 69.7% | viability, T/C (second compound 0.0316 µM, first compound 1 µM): 52% | viability, T/C (second compound 0.0316 µM, first compound 3.16 µM): 45.6% | viability, T/C (second compound 0.0316 µM, first compound 10 µM): 37.2% | viability, T/C (second compound 0.1 µM, first compound 0.0316 µM): 90.4% | viability, T/C (second compound 0.1 µM, first compound 0.1 µM): 76.2% | viability, T/C (second compound 0.1 µM, first compound 0.316 µM): 60.6% | viability, T/C (second compound 0.1 µM, first compound 1 µM): 55.3% | viability, T/C (second compound 0.1 µM, first compound 3.16 µM): 46.8% | viability, T/C (second compound 0.1 µM, first compound 10 µM): 33% | viability, T/C (second compound 0.316 µM, first compound 0.0316 µM): 95.9% | viability, T/C (second compound 0.316 µM, first compound 0.1 µM): 81.8% | viability, T/C (second compound 0.316 µM, first compound 0.316 µM): 71.2% | viability, T/C (second compound 0.316 µM, first compound 1 µM): 54% | viability, T/C (second compound 0.316 µM, first compound 3.16 µM): 40% | viability, T/C (second compound 0.316 µM, first compound 10 µM): 33.7% | viability, T/C (second compound 1 µM, first compound 0.0316 µM): 99.3% | viability, T/C (second compound 1 µM, first compound 0.1 µM): 79% | viability, T/C (second compound 1 µM, first compound 0.316 µM): 59.8% | viability, T/C (second compound 1 µM, first compound 1 µM): 57.5% | viability, T/C (second compound 1 µM, first compound 3.16 µM): 35.6% | viability, T/C (second compound 1 µM, first compound 10 µM): 32.8% | viability, T/C (second compound 3.16 µM, first compound 0.0316 µM): 92.3% | viability, T/C (second compound 3.16 µM, first compound 0.1 µM): 81.6% | viability, T/C (second compound 3.16 µM, first compound 0.316 µM): 63.2% | viability, T/C (second compound 3.16 µM, first compound 1 µM): 42.6% | viability, T/C (second compound 3.16 µM, first compound 3.16 µM): 34.1% | viability, T/C (second compound 3.16 µM, first compound 10 µM): 27.6% | viability, T/C (second compound 10 µM, first compound 0.0316 µM): 78.9% | viability, T/C (second compound 10 µM, first compound 0.1 µM): 74% | viability, T/C (second compound 10 µM, first compound 0.316 µM): 47.8% | viability, T/C (second compound 10 µM, first compound 1 µM): 37.9% | viability, T/C (second compound 10 µM, first compound 3.16 µM): 29.5% | viability, T/C (second compound 10 µM, first compound 10 µM): 20.9%
